Test results taken from patent US10935540B2, “GDF-15 as a haematological toxicity biomarker” (Novartis AG, priority 2015, dated 2021).

Tests used:
[1] = tested on: patients with liposarcomas; conditions: cited from earlier work
animal model = conditions: cited from earlier work
thrombopoesis = conditions: previous studies; cited from earlier work
patients = assay: Clinical analysis of serum GDF-15 (ELISA) versus platelet counts in patients treated with Compound A; assay type: in vivo, human; conditions: 21 patients, continuous three times weekly oral administration; preliminary analysis (FIG. 3)
Description: Patients were treated with (5)-1-(4-Chloro-phenyl)-7-isopropoxy-6-methoxy-2-(4-{methyl-[4-(4-methyl-3-oxo-piperazin-1-yl)-trans-cyclohexylmethyl]-amino}-phenyl)-1,4-dihydro-2H-isoquinolin-3-one (Compound A). Dose range was from 10 to 500 mg three times a week (3QW) with continuous or 2 week on 1 week off dosing regimen. Serum samples were collected from each subject at pre-dose and from 0.5 to 6 h post-dose on the first treatment day.
The serum level of GDF-15 expression was measured using enzyme-linked immunosorbent assay (ELISA; R&D Systems kit DGD150).
Clinical data (including platelet counts) were collected from all patients during the course of the treatment period.
Maximum observation period was 448 days on available platelet data.
A preliminary data analysis of (S)-1-(4-Chloro-phenyl)-7-isopropoxy-6-methoxy-2-(4-{methyl-[4-(4-methyl-3-oxo-piperazin-1-yl)-trans-cyclohexylmethyl]-amino}-phenyl)-1,4-dihydro-2H-isoquinolin-3-one effect on GDF-15 and platelet counts for 21 patients treated on a continuous three times weekly oral administration of (S)-1-(4-Chloro-phenyl)-7-isopropoxy-6-methoxy-2-(4-{methyl-[4-(4-methyl-3-oxo-piperazin-1-yl)-trans-cyclohexylmethyl]-amino}-phenyl)-1,4-dihydro-2H-isoquinolin-3-one was conducted. The conducted data analysis is represented in a plot on FIG. 3. In this plot, each point represents an individual patient. […]

[2] = tested on: patients with solid tumors; assay: Maximum change of platelet and neutrophil count versus GDF-15 fold change in patients with solid tumors receiving compound of formula I; assay type: in vivo, human; conditions: regimen 1A (q3w) 12.5-350 mg or regimen 1B 120 mg
Description: Maximum change of platelet count (FIG. 7) and neutrophil count (FIG. 8) and the GDF-15 values were determined for patients with solid tumors receiving compound of formula I, i.e. (S)-5-(5-Chloro-1-methyl-2-oxo-1,2-dihydro-pyridin-3-yl)-6-(4-chloro-phenyl)-2-(2,4-dimethoxy-pyrimidin-5-yl)-1-isopropyl-5,6-dihydro-1H-pyrrolo[3,4-d]imidazol-4-one, on the first day of a three week cycle (herein also referred to as regimen 1A or q3w) in doses of 12.5 mg (A), 25 mg (B), 50 mg (C), 100 mg (D), 200 mg (E), 250 mg (F), 350 mg(G) or on the first and eighth day of a 4 week cycle (herein also referred to as regimen 1B) in a dose of 120 mg (I). The left graphs show the maximum platelet count change vs. GDF-15 fold change, the GDF-15 being measured on day 1 of the first cycle (C1D1). The right graphs show the maximum platelet count change vs. GDF-15 fold change.
The platelet/neutrophil count was determined before receipt of first dose (baseline) and on day 1, 7 and 15 of the first and second cycle for regimen 1A (A-G) or on day 1, 8, 14, 22 of the first and second cycle for regimen 1B (I) and the maximum platelet change value in comparison to the baseline was selected. The “Change of platelet/neutrophile counts” value is calculated as post-baseline value minus baseline value and given in number of platelets/neutrophils per microliter of blood. […]

## CCOc1cc(C(C)(C)C)ccc1C1=N[C@@](C)(c2ccc(Cl)cc2)[C@@](C)(c2ccc(Cl)cc2)N1C(=O)N1CCN(CCCS(C)(=O)=O)CC1 [RG7112]
[1]; RG7112 administration
  major dose-limiting toxicity: thrombocytopenia
[1]; single-agent RG-7112, patients with liposarcomas
  patients with induced thrombocytopenia: 40 % of patients
Animal model
  time course of drug-induced thrombocytopenia: occurred rather late during the treatment period and persisted after drug discontinuation
thrombopoesis
  effect on thrombopoesis: impairs thrombopoesis

## COc1cc2c(cc1OC(C)C)[C@H](c1ccc(Cl)cc1)N(c1ccc(N(C)C[C@H]3CC[C@H](N4CCN(C)C(=O)C4)CC3)cc1)C(=O)C2 [Compound A, (S)-1-(4-Chloro-phenyl)-7-isopropoxy-6-methoxy-2-(4-{methyl-[4-(4-methyl-3-oxo-piperazin-1-yl)-trans-cyclohexylmethyl]-amino}-phenyl)-1,4-dihydro-2H-isoquinolin-3-one]
patients
  cycle 1 day 1 GDF-15 increase from baseline associated with a higher occurrence of platelet counts dropping below 150 G/L (grade 1 thrombocytopenia CTCAE V4): more than 25%

## COc1ncc(-c2nc3c(n2C(C)C)[C@H](c2ccc(Cl)cc2)N(c2cc(Cl)cn(C)c2=O)C3=O)c(OC)n1 [compound of formula I, (S)-5-(5-Chloro-1-methyl-2-oxo-1,2-dihydro-pyridin-3-yl)-6-(4-chloro-phenyl)-2-(2,4-dimethoxy-pyrimidin-5-yl)-1-isopropyl-5,6-dihydro-1H-pyrrolo[3,4-d]imidazol-4-one]
[2]; seen already for GDF-15 C1D1 24 h post-dose (FIG. 7)
  correlation of GDF-15 increase with platelet count change: correlates with a decrease
[2]; seen already for GDF-15 C1D1 24 h post-dose (FIG. 8)
  correlation of GDF-15 increase with neutrophil count change: correlates with a decrease
